Patent US12570675B2, “Boronic acid compounds” (LG CHEM, LTD., priority 2020, dated 2026)

The molecules below were run against Proteasome chymotrypsin-like activity (S26 protein from RPMI8226 cells) (Homo sapiens, UniProt P28074). Settings: S26 protein from RPMI8226 cell extract 2 ug/well, substrate 20 uM, 37° C., 90 minutes; read-out: Proteasome chymotrypsin-like activity inhibition IC50.
Assay type: biochemical
Procedure: The abilities to inhibit the proteasome activity of the compounds described in the Examples of the present invention and boronic acid drugs were evaluated as follows.
RPMI8226 cells, which is a multiple myeloma cell line, were cultured and then separated by a centrifuge, and washed twice with phosphate buffered saline (PBS). 20 mM of a tris-HCl (pH 8.0) buffer solution was added to the washed cells, and the cells were disrupted by a homogenizer and centrifuged to obtain S26 protein from the supernatant. Suc-Leu-Leu-Val-Tyr-AMC, for a fluorogenic substrate for the chymotrypsin-like activity of the proteasome, and Z-Leu-Leu-Glu-AMC, for a fluorogenic substrate for the caspase-like activity, were purchased from Calbiochem, EMD Millipore and used. Into each well of a 96-well plate (opaque, black round bottom), 20 ul of the S26 protein (final RPMI8226 cell extract concentration: 2 ug/well), 10 ul of S26 proteasome inhibitor serially diluted from 10 uM (final DMSO concentration: 0.5%), and 20 ul of the fluorogenic substrate for the proteasome chymotrypsin-like or caspase-like activity (final concentration: 20 uM) were added and mixed and allowed to react in a 37° C. incubator for 90 minutes. The fluorescence of the fluorogenic substrate was measured by FlexStation II Fluorometer (Molecular Devices). The fluorescence inhibited by the compound diluted at each concentration was measured as the relative percentage value for the amount obtained from the treatment only with the S26 protein and the fluorogenic substrate. IC50 (inhibitory concentration 50) was expressed in terms of a concentration that inhibits 50% of the maximum fluorescence induced by the fluorogenic substrate.

Chain of Proteasome chymotrypsin-like activity (S26 protein from RPMI8226 cells) (P28074 60-263 limits assumed): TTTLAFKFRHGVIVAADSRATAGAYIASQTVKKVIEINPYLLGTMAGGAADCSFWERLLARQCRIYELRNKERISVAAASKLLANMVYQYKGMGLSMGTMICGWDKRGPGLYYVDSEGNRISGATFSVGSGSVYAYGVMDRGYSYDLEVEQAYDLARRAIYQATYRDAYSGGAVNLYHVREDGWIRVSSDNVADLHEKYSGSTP

Row | SMILES | IC50
1 | CC[C@H](NC(=O)C1(Cc2ccccc2)CC(CNC(=O)c2nccc3ccccc23)=NO1)B(O)O (stereo partly drawn) [Example 289, ((1R)-1-(5-benzyl-3-((isoquinolin-1-carboxamido)methyl)-4,5-dihydroisoxazol-5-carboxamido)propyl)boronic acid] | < 25 nM
2 | O=C(N[C@@H](Cc1ccccc1)B(O)O)C1(Cc2ccccc2)CC(COc2ccc3ccccc3c2)=NO1 (stereo partly drawn) [Example 263, ((1R)-1-(5-benzyl-3-((naphthalen-2-yloxy)methyl)-4,5-dihydroisoxazol-5-carboxamido)-2-phenylethyl)boronic acid] | < 50 nM
3 | Cc1nn(C(C)C)c(C(=O)NCC2=NOC(Cc3ccccc3)(C(=O)N[C@@H](CC(C)C)B(O)O)C2)c1Cl (stereo partly drawn) [Example 222, ((1R)-1-(5-benzyl-3-((4-chloro-1-isopropyl-3-methyl-1H-pyrazol-5-carboxamido)methyl)-4,5-dihydroisoxazol-5-carboxamido)-3-methylbutyl)boronic acid] | < 10 nM
4 | O=C(N[C@@H](Cc1ccccc1)B(O)O)C1(Cc2ccccc2)CC(COc2cccc(Cl)c2)=NO1 (stereo partly drawn) [Example 259, ((1R)-1-(5-benzyl-3-((3-chlorophenoxy)methyl)-4,5-dihydroisoxazol-5-carboxamido)-2-phenylethyl)boronic acid] | < 50 nM
5 | CC(C)C[C@H](NC(=O)C1(Cc2cscn2)CC(CNC(=O)c2cccn3ccnc23)=NO1)B(O)O (stereo partly drawn) [Example 150, ((1R)-1-(3-((imidazo[1,2-a]pyridin-8-carboxamido)methyl)-5-(thiazol-4-ylmethyl)-4,5-dihydroisoxazol-5-carboxamido)-3-methylbutyl)boronic acid] | < 10 nM
6 | CC(C)C[C@H](NC(=O)C1(Cc2ccccc2)CC(CNC(=O)c2c(Cl)cnn2C)=NO1)B(O)O (stereo partly drawn) [Example 184, ((1R)-1-(5-benzyl-3-((4-chloro-1-methyl-1H-pyrazol-5-carboxamido)methyl)-4,5-dihydroisoxazol-5-carboxamido)-3-methylbutyl)boronic acid] | < 10 nM
7 | CC(C)C[C@H](NC(=O)C1(Cc2cscn2)CC(CNC(=O)c2nccc3ccccc23)=NO1)B(O)O (stereo partly drawn) [Example 137, ((1R)-1-(3-((isoquinolin-1-carboxamido)methyl)-5-(thiazol-4-ylmethyl)-4,5-dihydroisoxazol-5-carboxamido)-3-methylbutyl)boronic acid] | < 10 nM
8 | CC(C)C[C@H](NC(=O)C1(Cc2cccc(C(F)(F)F)c2)CC(CNC(=O)c2nccc3ccccc23)=NO1)B(O)O (stereo partly drawn) [Example 215, ((1R)-1-(3-((isoquinolin-1-carboxamido)methyl)-5-(3-(trifluoromethyl)benzyl)-4,5-dihydroisoxazol-5-carboxamido)-3-methylbutyl)boronic acid] | < 10 nM
9 | CC(C)C[C@H](NC(=O)C1(Cc2ccccc2)CC(CNC(=O)Cc2ccccc2)=NO1)B(O)O (stereo partly drawn) [Example 109, ((1R)-1-(5-benzyl-3-((2-phenylacetamido)methyl)-4,5-dihydroisoxazol-5-carboxamido)-3-methylbutyl)boronic acid] | < 10 nM
10 | CC(C)C[C@H](NC(=O)C1(Cc2ccccc2)CC(CNC(=O)c2ccn(C(C)C)n2)=NO1)B(O)O (stereo partly drawn) [Example 172, ((1R)-1-(5-benzyl-3-((1-isopropyl-1H-pyrazol-3-carboxamido)methyl)-4,5-dihydroisoxazol-5-carboxamido)-3-methylbutyl)boronic acid] | < 10 nM
11 | Cc1nc2c(C(=O)NCC3=NOC(Cc4ccccc4)(C(=O)N[C@@H](CC(C)C)B(O)O)C3)cccn2c1Cl (stereo partly drawn) [Example 140, ((1R)-1-(5-benzyl-3-((3-chloro-2-methylimidazo[1,2-a]pyridin-8-carboxamido)methyl)-4,5-dihydroisoxazol-5-carboxamido)-3-methylbutyl)boronic acid] | < 10 nM
12 | O=C(NCC1=NOC(Cc2ccccc2)(C(=O)N[C@@H](Cc2ccccc2)B(O)O)C1)c1cccn2cnnc12 (stereo partly drawn) [Example 306, ((1R)-1-(3-(([1,2,4]triazolo[4,3-a]pyridin-8-carboxamido)methyl)-5-benzyl-4,5-dihydroisoxazol-5-carboxamido)-2-phenylethyl)boronic acid] | < 10 nM
13 | CC[C@H](NC(=O)C1(Cc2ccccc2)CC(CNC(=O)c2cccn3ccnc23)=NO1)B(O)O (stereo partly drawn) [Example 297, ((1R)-1-(5-benzyl-3-((imidazo[1,2-a]pyridin-8-carboxamido)methyl)-4,5-dihydroisoxazol-5-carboxamido)propyl)boronic acid] | < 25 nM
14 | CC(C)C[C@H](NC(=O)C1(Cc2ccccc2)CC(CNC(=O)c2ccc(OC(C)C)c(C#N)c2)=NO1)B(O)O (stereo partly drawn) [Example 123, [(1R)-1-[[5-benzyl-3-[[(3-cyano-4-isopropoxy-benzoyl)amino]methyl]-4H-1,2-oxazol-5-carbonyl]amino]-3-methyl-butyl]boronic acid] | < 10 nM

Next, values leading:

Row | IC50 | SMILES
15 | < 500 nM | CC(C)C[C@H](NC(=O)C1CC(c2cccc(OC(F)(F)F)c2)=NO1)B(O)O (stereo partly drawn) [Example 37, ((1R)-3-methyl-1-(3-(3-(trifluoromethoxy)phenyl)-4,5-dihydroisoxazol-5-carboxamido)butyl)boronic acid]
16 | < 10 nM | CC(C)C[C@H](NC(=O)C1(Cc2ccccc2)CC(CNC(=O)c2cc(-c3ccncc3)nn2C(C)C)=NO1)B(O)O (stereo partly drawn) [Example 229, ((1R)-1-(5-benzyl-3-((1-isopropyl-3-(pyridin-4-yl)-1H-pyrazol-5-carboxamido)methyl)-4,5-dihydroisoxazol-5-carboxamido)-3-methylbutyl)boronic acid]
17 | < 10 nM | Cc1ncc(C(=O)NCC2=NOC(Cc3ccccc3)(C(=O)N[C@@H](CC(C)C)B(O)O)C2)s1 (stereo partly drawn) [Example 235, ((1R)-1-(5-benzyl-3-((2-methylthiazol-5-carboxamido)methyl)-4,5-dihydroisoxazol-5-carboxamido)-3-methylbutyl)boronic acid]
18 | < 100 nM | CC(C)C[C@H](NC(=O)C1CC(c2ccc(-c3ccccc3)nc2)=NO1)B(O)O (stereo partly drawn) [Example 32, ((1R)-3-methyl-1-(3-(6-phenylpyridin-3-yl)-4,5-dihydroisoxazol-5-carboxamido)butyl)boronic acid]
19 | > 1000 nM | CC(C)C[C@H](NC(=O)[C@]1(C(C)C)CC(c2nccc3ccccc23)=NO1)B(O)O [Example 13, ((R)-1-((R)-5-isopropyl-3-(isoquinolin-1-yl)-4,5-dihydroisoxazol-5-carboxamido)-3-methylbutyl)boronic acid]
20 | < 10 nM | CC(C)C[C@H](NC(=O)C1(Cc2ccccc2)CC(CNC(=O)c2cnccn2)=NO1)B(O)O (stereo partly drawn) [Example 106, ((1R)-1-(5-benzyl-3-((pyrazin-2-carboxamido)methyl)-4,5-dihydroisoxazol-5-carboxamido)-3-methylbutyl)boronic acid]
21 | < 10 nM | Cc1ccc(F)cc1C(=O)NCC1=NOC(Cc2ccccc2)(C(=O)N[C@@H](CC(C)C)B(O)O)C1 (stereo partly drawn) [Example 111, ((1R)-1-(5-benzyl-3-((5-fluoro-2-methylbenzamido)methyl)-4,5-dihydroisoxazol-5-carboxamido)-3-methylbutyl)boronic acid]
22 | < 100 nM | CC(C)C[C@H](NC(=O)C1CC(C(=O)NCc2cc(Cl)ccc2Cl)=NO1)B(O)O (stereo partly drawn) [Example 75, ((1R)-1-(3-((2,5-dichlorobenzyl)carbamoyl)-4,5-dihydroisoxazol-5-carboxamido)-3-methylbutyl)boronic acid]
23 | < 10 nM | CC(C)C[C@H](NC(=O)C1(Cc2ccccc2)CC(CNC(=O)c2cccc(C#N)c2)=NO1)B(O)O (some centres unmarked) [Example 316]
24 | < 500 nM | CC(C)C[C@H](NC(=O)C1CC(c2ccc(Oc3ccccc3)cc2)=NO1)B(O)O (stereo partly drawn) [Example 44, ((1R)-3-methyl-1-(3-(4-phenoxyphenyl)-4,5-dihydroisoxazol-5-carboxamido)butyl)boronic acid]
25 | < 10 nM | Cc1cccnc1C(=O)NCC1=NOC(Cc2ccccc2)(C(=O)N[C@@H](CC(C)C)B(O)O)C1 (stereo partly drawn) [Example 159, ((1R)-1-(5-benzyl-3-((3-methylpicolinamido)methyl)-4,5-dihydroisoxazol-5-carboxamido)-3-methylbutyl)boronic acid]
26 | < 10 nM | CC(C)C[C@H](NC(=O)C1(Cc2ccccc2)CC(COCc2cccc(Br)n2)=NO1)B(O)O (stereo partly drawn) [Example 53, ((1R)-1-(5-benzyl-3-(((6-bromopyridin-2-yl)methoxy)methyl)-4,5-dihydroisoxazol-5-carboxamido)-3-methylbutyl)boronic acid]
27 | < 100 nM | CC(C)C[C@H](NC(=O)C1CC(c2cncc(-c3ccccc3)c2)=NO1)B(O)O (stereo partly drawn) [Example 33, ((1R)-3-methyl-1-(3-(5-phenylpyridin-3-yl)-4,5-dihydroisoxazol-5-carboxamido)butyl)boronic acid]
28 | < 100 nM | COc1ccc(COCC2=NOC(Cc3ccccc3)(C(=O)N[C@@H](CC(C)C)B(O)O)C2)cc1 (some centres unmarked) [Example 274]
29 | < 10 nM | CC(C)C[C@H](NC(=O)C1(Cc2ccccc2)CC(CNC(=O)c2cccn3c(Cl)cnc23)=NO1)B(O)O (stereo partly drawn) [Example 142, ((1R)-1-(5-benzyl-3-((3-chloroimidazo[1,2-a]pyridin-8-carboxamido)methyl)-4,5-dihydroisoxazol-5-carboxamido)-3-methylbutyl)boronic acid]
